# Entries after “also recorded” stand apart in the source; their conditions may differ.
# How the values were obtained:
# [1] = system: polyoma virus transformed BHK21/c13 cells, clone S100T1; assay: Clonal test: clonal growth of S100T1 cells in soft agar (Exp 2, 4, 6, 15, 16); assay type: cell-based, hamster; conditions: for Significance: Exp 15, 5th day, ” = as line above; for Clonal growth: Exp 15, plate read the 5th day
# Experimental: The clonal test comprises: • 1. seeding cells in soft agar optionally containing growth factor(s); • 2. handling or incubation of special gels (e.g. ultra low gelling temperature agarose), including the production of cell density gradients. • 3. incubating in suitable temperature and atmosphere and; • 4. regular monitoring of the cells and development of clones.
# The clonal test can be directed in fluid medium or in soft agar medium. Usually only transformed cells will form clones in soft agar.
# After seeding and mixing, the tubes were placed in the refrigerator for about 1 hour to consolidate the ultra low melting point agarose.
# 120000 S100T1 cells of a polyoma virus transformed BHK21/c13 cell line, were seeded in 1 ml soft agar medium in Falcon 50 ml centrifuge tubes. […] On the top of the agar layer 0.5 ml fluid medium was added.
# Agar cultures were prepared in wells of 24 well Falcon tissue culture plate. […] Insulin (Actrapid, Novo) was added in a concentration of 0.1 i.u./ml to BHK21/c13 cell cultures only.
# The cells were all single cells. Each well received 32000 cells (Table 4). Plate: 24 wells Falcon tissue culture plate received a bottom layer composed as in Table 3:
# The cells were all single cells.
# The wells contained two layers, each of 0.3 ml agar.
# The agarose was added to double distilled water and solved by heating in micro oven.
# [2] = system: polyoma virus transformed BHK21/c13 cells, line S100T1; assay: Collocation inhibition test: clonal growth in sparsely and densely seeded areas of a cell density gradient of S100T1 cells in soft agar (Exp 13, 17, 19-26); conditions: for Clonal growth, H: high density area of cell gradient, High / Clonal growth, L: low density area of cell gradient, High / Clonal growth, H: high density area of cell gradient, Low / Clonal growth, L: low density area of cell gradient, Low / Clonal growth, H: high density area of cell gradient, Medium / Clonal growth, L: low density area of cell gradient, Medium: 4-OH-OPB analogues, S100T1 in soft agar; for Clonal growth, H: high density area of cell gradient, High / Clonal growth, L: low density area of cell gradient, High: high concentration; for Clonal growth, H: high density area of cell gradient, Low / Clonal growth, L: low density area of cell gradient, Low: low concentration; for Clonal growth, H: high density area of cell gradient, Medium / Clonal growth, L: low density area of cell gradient, Medium: medium concentration; for Clonal growth read on the 3rd day after seeding / Clonal growth read on the 6th day after seeding: Exp 17; for Inhibition of clonal growth of sparsely seeded cells: 117000 S100T1 cells/well; for Compounds with significant inhibition of clonal growth of sparsely seeded cells: Exp 24, 180000 S100T1 cells/well;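 on all read-outs here: soft agar cultures in 24-well plates with a cell density gradient in the top layer, compounds applied from DMSO stocks, clonal growth scored in sparse versus dense areas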
# Experimental: The cells should be grown in a top agar layer to avoid growth on the bottom surface. […] Both densely seeded and sparsely seeded areas were photographed.
# Cells: The polyoma virus transformed offspring of BHK21/c13, S100T1, was grown on 75 cm^2 flasks on Eagles medium with 5% foetal calf serum. […] Foetal calf serum (0.7 ml) was added to each harvest. After low speed centrifugation the supernatant was discarded and the cells were dispersed in 1 ml FBS.
# The concentration of ultra low gelling temperature agarose (Sigma) of the top agar layer with cells was also 0.8%. […] The addition of cells was performed at the same side of the wells in order to create similar cell density gradients. Finally the top layer agar was consolidated in the refrigerator.
# After that it was incubated at 37 degrees in 5% CO2 atmosphere.
# Agar cultures were prepared in Falcon 24 well tissue culture plate. Each well contained two agar layers of 0.3 ml.
# Agar cultures were prepared in wells of Falcon 24 well tissue culture plate. Each contained two agar layers of 0.3 ml. […] The medium contained Eagles MEM and 10% foetal bovine serum (FBS).
# The compounds were first solved in DMSO in 20 mM concentration and then diluted in medium. The top layer needed 60-90 minutes in the refrigerator for solidification before incubation in 37° C. with 5% CO2 atmosphere.
# In this experiment the inhibitor was added to the bottom layer in order to get an easier way for making the cell density gradient. One side of the Falcon 24 well plate was elevated 12 degrees in the refrigerator for 60-90 minutes to solidify the bottom layer in an oblique position When then solidifying the cell containing top soft agar layer in horizontal position, the cell gradient constantly became good across the well. […] Another 90 minutes were spent in the refrigerator to consolidate the soft agar layer with cells in a horizontal position. Both layers contained 0.8% agarose, Eagles MEM and 10% FBS.
# Tilting the plate 12 degrees when solidifying the bottom layer with the drug and casting the top layer with cells horizontally made a stable cell gradient.
# The indicated compounds were added to soft agar cultures of the polyoma virus transformed cell line S100T1 of BHK21/c13 cells (Table 1). Agar cultures were prepared in wells of a Falcon 24 well tissue culture plate. The wells contained two agar layers of 0.3 ml. […] The bottom medium was identical, but without cells.
# The compounds were first solved in DMSO in 20 mM concentration and then diluted in bottom medium. The agar layers needed 60-90 minutes in the refrigerator for consolidation before incubation at 37° C. in 5% CO2 atmosphere.
# [3] = High conc., μM in wells: No 1 (4-OH—OPB) 20, 2 (Colchicine) 0.1, 3 (Diphenylhydantoin) 100, 4 (Podophyllotoxin) 0.3, 5 (Piroxicam) 50, 6 (Diclofenak) 100
# [4] = Low conc., μM in wells: No 1 (4-OH—OPB) 2, 2 (Colchicine) 0.01, 3 (Diphenylhydantoin) 10, 4 (Podophyllotoxin) 0.03, 5 (Piroxicam) 5, 6 (Diclofenak) 10, 7 (Ibuprofen) 100, 8 (Naproxen) 50, 9 (Acetylsalicylic acid) 100
# [5] = High: #1 Colchicine 1, #2 Podophyllotoxin 3, #3 Etoposide 200, #4 4-OH—OPB 6.7 μM in wells, #5 DMSO 29.2 μl
# [6] = Low: #1 Colchicine 0.1, #2 Podophyllotoxin 0.3, #3 Etoposide 20, #4 4-OH—OPB 0.67 μM in wells, #5 DMSO 1.16 μl
# [7] = Medium: #1 Colchicine 0.3, #2 Podophyllotoxin 0.9, #3 Etoposide 60, #4 4-OH—OPB 2 μM in wells, #5 DMSO 6.8 μl
# [8] = Experiment 22, H: area with high cell density, High concentration
# [9] = Experiment 22, H: area with high cell density, Low concentration
# [10] = Experiment 22, H: area with high cell density, Medium concentration
# [11] = Experiment 22, L: area with low cell density, Low concentration
# [12] = Experiment 22, L: area with low cell density, Medium concentration
# [13] = Summary Table 3 of analogue tests (experiments 22-25), H (high cell density), High concentration
# [14] = Summary Table 3 of analogue tests (experiments 22-25), H (high cell density), Low concentration
# [15] = Summary Table 3 of analogue tests (experiments 22-25), H (high cell density), Medium concentration
# [16] = Summary Table 3 of analogue tests (experiments 22-25), L (low cell density), Low concentration
# [17] = Summary Table 3 of analogue tests (experiments 22-25), L (low cell density), Medium concentration
# [18] = High conc., μM in wells: No 1 (4-OH—OPB) 20, 2 (Colchicine) 0.1, 3 (Diphenylhydantoin) 100, 4 (Podophyllotoxin) 0.3, 5 (Piroxicam) 50, 6 (Diclofenak) 100, 7 (Ibuprofen) 1000, 8 (Naproxen) 500, 9 (Acetylsalicylic acid) 1000
# [19] = Experiment 22, L: area with low cell density, High concentration
# [20] = Summary Table 3 of analogue tests (experiments 22-25), L (low cell density), High concentration
# [21] = Experiment 24, H: area with high cell density, High concentration, 48 hours
# [22] = Experiment 24, H: area with high cell density, Low concentration, 48 hours
# [23] = Experiment 24, H: area with high cell density, Medium concentration, 48 hours
# [24] = Experiment 24, L: area with low cell density, High concentration, 48 hours
# [25] = Experiment 24, L: area with low cell density, Low concentration, 48 hours
# [26] = Experiment 24, L: area with low cell density, Medium concentration, 48 hours
Structure (SMILES),"Significance [1, 3]","Significance [1, 4]","Clonal growth, H: high density area of cell gradient, High [2]","Clonal growth, L: low density area of cell gradient, High [2]","Clonal growth, H: high density area of cell gradient, Low [2]","Clonal growth, L: low density area of cell gradient, Low [2]","Clonal growth, H: high density area of cell gradient, Medium [2]","Clonal growth, L: low density area of cell gradient, Medium [2]",Inhibition of clonal growth of sparsely seeded cells ([2]; Exp 22),"Clonal growth [2, 8]","Clonal growth [2, 9]","Clonal growth [2, 10]","Clonal growth [2, 11]","Clonal growth [2, 13]","Clonal growth [2, 14]","Clonal growth [2, 15]","Clonal growth [2, 16]","Clonal growth [2, 17]","Clonal growth [1, 18]","Clonal growth [2, 20]",also measured
"CCCCC(C(=O)Nc1ccccc1)C(=O)Nc1ccc(O)cc1 (centres unmarked) [#4, 2-Butyl-N-(4-hydroxy-phenyl)-N′-phenylmalonamide]",probably,”,++,((+)),++,++,++,++,"smaller effect; also recorded: showed an effect, but even higher concentration was needed than for #6",++,++,++,++,++,++,++,++,++,,,"Clonal growth read on the 3rd day after seeding [2, 5]: −; Clonal growth read on the 6th day after seeding [2, 5]: ((+)); Clonal growth read on the 3rd day after seeding [2, 6]: +; Clonal growth read on the 6th day after seeding [2, 6]: +; Clonal growth read on the 3rd day after seeding [2, 7]: −; Clonal growth read on the 6th day after seeding [2, 7]: ((+)); Clonal growth [2, 12]: ++"
"O=C1N(c2ccccc2)N(c2ccccc2)C(=O)C1(O)CC[S+]([O-])c1ccccc1 (centres unmarked) [#6, 1,2-diphenyl-4-hydroxy-4-[2-(phenylsulfinyl)ethyl]-3,5-pyrazolidinedione]",”,probably*,++,−,++,++,++,((+)),best inhibitor of clonal growth of sparsely seeded cells,++,++,++,++,++,++,++,++,,++,−,"Effect at low concentration ([2]; Exp 22): no effect was observed; Clonal growth [2, 19]: −; Clonal inhibition by 4-OH-OPB analogues, summary of Exp 22-25 ([2]; sparsely seeded areas while densely seeded areas of the same culture showed significant growth): complete inhibition of growth in sparsely seeded areas"
"CCCCC1(O)C(=O)N(c2ccccc2)N(c2ccc(OC)cc2)C1=O (centres unmarked) [#7, 4-(1-butyl)-4-hydroxy-1-(4-methoxyphenyl)-2-phenyl-3,5-pyrazolidinedione]",,no,++,(+),++,++,++,++,smallest effect; also recorded: might have a small similar effect,++,++,++,++,++,++,++,++,++,−,(+),"Clonal growth [2, 19]: (+); Clonal growth [2, 12]: ++"
"Cc1ccc(C2(O)C(=O)N(c3ccccc3)N(c3ccccc3)C2=O)cc1 [#8, 1,2-diphenyl-4-hydroxy-4-(4-methylphenyl)-3,5-pyrazolidinedione]",,”,++,+,,,++,,,,,,,++,+(+),++,+(+),+(+),−,+,"Compounds with significant inhibition of clonal growth of sparsely seeded cells [2]: None; Clonal growth [2, 21]: +(+); Clonal growth [2, 22]: ++; Clonal growth [2, 23]: ++; Clonal growth [2, 24]: +(+); Clonal growth [2, 25]: +; Clonal growth [2, 26]: +(+)"
"O=C1N(c2ccccc2)N(c2ccccc2)C(=O)C1(O)Cc1ccccc1 [#9, 4-benzyl-1,2-diphenyl-4-hydroxy-3,5-pyrazolidinedione]",,”,++,+,++(+),,+++,+,,,,,,++,++(+),+++,+(+),+,−,+,"Clonal growth [1, 4]: +; Compounds with significant inhibition of clonal growth of sparsely seeded cells [2]: None; Clonal growth [2, 21]: ++; Clonal growth [2, 22]: ++(+); Clonal growth [2, 23]: +++; Clonal growth [2, 24]: +; Clonal growth [2, 25]: +(+); Clonal growth [2, 26]: +"

# Source: patent US20060121449A1, “Method for selection of compounds which inhibit clonal cell growth and use thereof” (priority 2002, published 2006)
